Earlier results as cited in patent US12364661B2, “Deformable nano-scale vehicles (DNVS) for trans-blood brain barrier, trans-mucosal, and transdermal drug delivery” (The Regents of the University of California, priority 2015, dated 2025).

Settings: measured experimentally

log P: 0.4
SMILES: CCCN[C@H]1CCc2nc(N)sc2C1 [Pramipexole, pramipexole]
